Source: article PMC3375898 (Natural Product Communications, 2011)
Where two headings read alike, the source gives them in different places.

Legend:
Type in all cases: cell-based
[1] = test system: MCF-7 human breast cancer cells; test: Cancer bioassay, cytotoxicity by NCI protocol
[2] = test system: chloroquine-resistant strain (Indochina W2) of P. falciparum; test: Malaria bioassay, PicoGreen fluorometric antiplasmodial assay; conditions: Plasmodium falciparum
[3] = Mammalian cell cytotoxicity bioassay; conditions: African green monkey, Vero cells (kidney)
[4] = test system: recombinant Tulahuen clone C4 of T. cruzi, intracellular amastigotes in Vero cells; test: Chagas' disease bioassay, beta-galactosidase colorimetric assay; conditions: Trypanosoma cruzi, 120 h, read-out: IC50 T. cruzi

COc1cccc2c1C(=O)c1c(O)c3c(c(O)c1C2=O)C[C@@](O)(C(=O)CO)C[C@@H]3O[C@H]1C[C@H](N)[C@H](O)[C@H](C)O1 [Adriamycin, reference compound]
IC50 ([1]; MCF7, read-out: IC50 MCF-7, positive control): 0.02 to 0.3 nM

CCN(CC)CCCC(C)Nc1ccnc2cc(Cl)ccc12 (stereo not shown) [Chloroquine, reference compound]
IC50 ([2]; W2, read-out: IC50 P. falciparum, positive control): 80 to 100 nM

COc1c(CC(C)O)c2c3c(CC(C)O)c(OC)c(=O)c4c(O)cc5c(c6c(cc(O)c(c1=O)c62)OCO5)c43 (stereo not shown) [Compound 1, cercosporin]
IC50 ([1]; MCF7, read-out: IC50 MCF-7): 4680 ± 200 nM
IC50 at 4 h [3]: 1540 ± 100 nM
IC50 ([2]; W2, read-out: IC50 P. falciparum): 1030 ± 30 nM
IC50 [4]: 1080 ± 30 nM

CC1CS(=O)(=O)CCN1/N=C/c1ccc([N+](=O)[O-])o1 (stereo not shown) [Nifurtimox, reference compound]
IC50 [4]: 10000 to 16000 nM
